PMC8760490, “Discovery of novel furanylbenzamide inhibitors that target oncogenic tyrosine phosphatase SHP2 in leukemia cells” (The Journal of Biological Chemistry, 2021)

Legend:
[1] = test system: KYSE-520 esophageal cancer cells; test: Cell viability (CellTiter-Glo), KYSE-520; type: cell-based; settings: for effect on KYSE-520 cell growth: various concentrations, 3 days
Method: (§1) Inhibition of SHP2 has been reported to inhibit the growth of cancer cells including Kasumi-1 acute myeloid leukemia (AML) and KYSE-520 esophageal cancer cells ([30]). […] Thus, we treated two TNBC cell lines, BT-549 and MDA-MB-468, with SBI-4668 or the SHP2 allosteric inhibitor SHP099 at various concentrations and determined cell viability after 72 h, compared with the vehicle control (Fig. 4C). […] Next, we performed an 11-day colony formation assay with TNBC cells treated with SBI-4668 or SHP099 at 5, 10, or 20 μM (Fig. 4D).
(§2) Viability of AML and esophageal carcinoma cells was assessed using the ATP-depletion assay CellTiter-Glo (Promega). Cells were harvested at 1 × 10^6/ml to 2 × 10^6 cells/ml with cell numbers determined by trypan blue using the Countess Cell counter (Thermo Scientific) and resuspended in culture media. About 3000 cells (in 20 μl) were seeded in a 384-well format white and clear-bottom microplate (catalog no.: 781098; Greiner) spotted with test compound or vehicle control (DMSO) using an Echo 555 Liquid Handler. Cells were incubated for 3 days, before 10 μl of CellTiter-Glo reagent mix was added to each well and incubated for 10 min at RT. Luminescence was read on a Tecan Spark Multimode Microplate Reader, and data were analyzed using GraphPad Prism software.

[2] = test system: Kasumi-1 acute myeloid leukemia (AML) cells; test: Cell viability (CellTiter-Glo), Kasumi-1; type: cell-based; settings: for effect on Kasumi-1 cell growth: various concentrations, 3 days
Method: as §1, §2

Nc1ccc(NC(=O)c2cc(-c3ccc(/C=C4\Sc5ccccc5C4=O)o3)ccc2O)cc1 [SBI-2130, (Z)-N-(4-Aminophenyl)-2-hydroxy-5-(5-((3-oxobenzo[b]thiophen-2(3H)-ylidene)methyl)furan-2-yl)benzamide]
effect on KYSE-520 cell growth [1]: dose-dependently inhibited cancer cell growth | effect on Kasumi-1 cell growth [2]: dose-dependently inhibited cancer cell growth

N#Cc1cc(-c2ccc(/C=C3\Sc4ccccc4C3=O)o2)ccc1O [SBI-3404, (Z)-2-Hydroxy-5-(5-((3-oxobenzo[b]thiophen-2(3H)-ylidene)methyl)furan-2-yl)benzonitrile]
effect on KYSE-520 cell growth [1]: dose-dependently inhibited cancer cell growth | effect on Kasumi-1 cell growth [2]: dose-dependently inhibited cancer cell growth

O=C(Nc1ccccc1)c1cc(-c2ccc(/C=C3\Sc4ccccc4C3=O)o2)ccc1O [SBI-4668, (Z)-2-Hydroxy-5-(5-((3-oxobenzo[b]thiophen-2(3H)-ylidene)methyl)furan-2-yl)-N-phenylbenzamide]
IC50 ([1]; Homo sapiens, KYSE-520, 72 h, 3 days in culture): 5.4 µM | effect on KYSE-520 cell growth [1]: dose-dependently inhibited cancer cell growth | IC50 ([2]; Homo sapiens, Kasumi 1, 72 h, 3 days in culture): 8.5 µM | effect on Kasumi-1 cell growth [2]: dose-dependently inhibited cancer cell growth
